Assay results: patent US20240254119A1 (THIRD HARMONIC BIO, INC., priority 2022, published 2024)
pIC50: −log10 of the molar value.

Target: T1, wtKIT (Homo sapiens, UniProt P10721)
T1 construct: 1888289AM in the reaction mixtures
Assay: HTRF biochemical assay, wtKIT (phosphorylation of a peptide substrate)
Conditions: Table 4
Description: Exemplary compounds were tested for ability to inhibit the phosphorylation of a peptide substrate by the tyrosine kinase wt KIT, PDGFRα, or CSF-1R. Assay procedures and results are described below.
Enzyme, substrate, and cofactors (ATP and Mn^2+) are combined in a well of a microtiter plate and incubated for 3 hours at 25° C. At the end of the incubation, the reaction is quenched by the addition of an EDTA-containing buffer.
The substrate used in the CSF-1R and PDGFRα assay is FAM-[…]-CONH2 (FAM is carboxyfluorescein). Peptide should be >95% purity. The substrate for the KIT assay is FAM-[…]-NH2.
• 1. To a well of a 384-wellplate add 5 μL of 2× enzyme buffer (or control). • 2. Add 100 nL of 100× compound. Enzyme and compound may be pre-incubated at this time if desired. • 3. Add 5 μL of 2× substrate buffer. • 4. Incubate plate at 25° C. for 3 hours. • 5. Add 10 uL of anti-phosphotyrosine antibody buffer. • 6. Read plate in BioTek Synergy Reader. Reaction Conditions for wtKIT Assay
• 100 mM HEPES, pH 7.5 0.1% BSA • 0.01% Triton x-100 • 1 mM DTT • 10 mM MnCl2 • 10 μM Sodium Orthovanadate • 10 μM Beta-Glycerophosphate • 400 μM ATP • 1% DMSO (from compound) • 1 μM FAM-[…]-CONH2, 5.0 nM wtKIT Enzyme (1888289AM)* • *Specific activity may vary from lot to lot. Enzyme concentration may need to be adjusted to yield 10-20% conversion of substrate to product.

T1 sequence (P10721 26-976): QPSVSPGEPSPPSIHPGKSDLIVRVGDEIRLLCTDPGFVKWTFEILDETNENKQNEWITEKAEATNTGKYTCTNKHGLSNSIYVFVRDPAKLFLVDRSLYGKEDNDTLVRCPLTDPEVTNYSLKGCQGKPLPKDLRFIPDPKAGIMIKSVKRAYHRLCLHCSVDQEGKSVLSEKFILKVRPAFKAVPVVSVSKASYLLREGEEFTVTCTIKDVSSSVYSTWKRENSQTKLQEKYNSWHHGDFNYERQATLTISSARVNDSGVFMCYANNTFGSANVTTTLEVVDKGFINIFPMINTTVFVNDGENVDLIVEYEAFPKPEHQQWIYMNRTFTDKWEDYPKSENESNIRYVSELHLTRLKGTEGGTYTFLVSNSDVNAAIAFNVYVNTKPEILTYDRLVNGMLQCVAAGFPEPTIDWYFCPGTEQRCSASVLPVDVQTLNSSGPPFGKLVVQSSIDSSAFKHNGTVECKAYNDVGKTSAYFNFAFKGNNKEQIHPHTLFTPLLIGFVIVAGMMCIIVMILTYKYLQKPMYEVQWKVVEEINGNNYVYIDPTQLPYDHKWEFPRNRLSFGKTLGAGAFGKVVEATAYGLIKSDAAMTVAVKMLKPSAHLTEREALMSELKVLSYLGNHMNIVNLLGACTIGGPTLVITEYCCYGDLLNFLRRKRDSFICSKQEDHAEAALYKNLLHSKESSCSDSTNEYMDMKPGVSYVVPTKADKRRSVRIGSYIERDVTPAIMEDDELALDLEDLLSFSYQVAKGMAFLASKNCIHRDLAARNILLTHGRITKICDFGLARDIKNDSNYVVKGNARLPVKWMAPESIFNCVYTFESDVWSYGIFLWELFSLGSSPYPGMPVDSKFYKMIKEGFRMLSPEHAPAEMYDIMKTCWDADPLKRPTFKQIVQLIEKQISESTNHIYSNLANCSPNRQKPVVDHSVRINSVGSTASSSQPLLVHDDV

Compound `Cc1nc(-c2ccc(C)c(NC(=O)c3cnc4cc(C5CCNC5=O)ccn34)c2)no1` (centres unmarked) [Compound I-448] has a pIC50 of 5.30 to 6.30.
For `Cc1ccc(-c2noc([C@H]3C[C@@H]3F)n2)cc1NC(=O)c1cnc2cc(CCCC(C)(C)O)ccn12` [Compound I-452, N-[5-[5-[(1R,2S)-2-fluorocyclopropyl]-1,2,4-oxadiazol-3-yl]-2-methyl-phenyl]-7-(4-hydroxy-4-methyl-pentyl)imidazo[1,2-a]pyridine-3-carboxamide], the pIC50 was ≥ 7.30.
For `Cc1ccc(-c2noc([C@H]3C[C@@H]3F)n2)cc1NC(=O)c1cnc2ccc(COCCO)cn12` [Compound I-453, N-[5-[5-[(1R,2S)-2-fluorocyclopropyl]-1,2,4-oxadiazol-3-yl]-2-methyl-phenyl]-6-(2-hydroxyethoxymethyl)imidazo[1,2-a]pyridine-3-carboxamide], the pIC50 was ≥ 7.30.
For `Cc1ccc(-c2noc([C@H]3C[C@@H]3F)n2)cc1NC(=O)c1cnc2cc(COCCS(C)(=O)=O)ccn12` [Compound I-454, N-[5-[5-[(1R,2S)-2-fluorocyclopropyl]-1,2,4-oxadiazol-3-yl]-2-methyl-phenyl]-7-(2-methylsulfonylethoxymethyl)imidazo[1,2-a]pyridine-3-carboxamide], the pIC50 was ≥ 7.30.
With `Cc1ccc(-c2noc([C@H]3C[C@@H]3F)n2)cc1NC(=O)c1cnc2ccc(COCC(C)(C)O)cn12` [Compound I-455, N-[5-[5-[(1R,2S)-2-fluorocyclopropyl]-1,2,4-oxadiazol-3-yl]-2-methyl-phenyl]-6-[(2-hydroxy-2-methyl-propoxy)methyl]imidazo[1,2-a]pyridine-3-carboxamide] the pIC50 was ≥ 7.30.
In the case of `Cc1ccc(-c2noc([C@H]3C[C@@H]3F)n2)cc1NC(=O)c1cnc2cc(C(C)(C)O)ccn12` [Compound I-456], the pIC50 was ≥ 7.30.
`Cc1ccc(-c2noc([C@H]3C[C@@H]3F)n2)cc1NC(=O)c1cnc2ccc(C(C)(C)O)cn12` [Compound I-457, N-(5-(5-((1R,2S)-2-fluorocyclopropyl)-1,2,4-oxadiazol-3-yl)-2-methylphenyl)-6-(2-hydroxypropan-2-yl)imidazo[1,2-a]pyridine-3-carboxamide] was tested, and the pIC50 was ≥ 7.30.
Work on `Cc1ccc(-c2noc([C@H]3C[C@@H]3F)n2)cc1NC(=O)c1cnc2cc(CC(C)(C)O)ccn12` [Compound I-460] yielded a pIC50 of 6.30 to 7.30.
`Cc1ccc(-c2noc([C@H]3C[C@@H]3F)n2)cc1NC(=O)c1cnc2cc(C(C)(C)CO)ccn12` [Compound I-464] gave a pIC50 of 6.30 to 7.30.
With `COC(C)(C)COCc1ccn2c(C(=O)Nc3cc(-c4noc([C@H]5C[C@@H]5F)n4)ccc3C)cnc2c1` [Compound I-465] the pIC50 was 6.30 to 7.30.
`Cc1ccc(-c2noc([C@H]3C[C@@H]3F)n2)cc1NC(=O)c1cnn2cc(COCC(C)(C)O)ccc12` [Compound I-466, N-[5-[5-[(1R,2S)-2-fluorocyclopropyl]-1,2,4-oxadiazol-3-yl]-2-methyl-phenyl]-6-[(2-hydroxy-2-methylpropoxy)methyl]pyrazolo[1,5-a]pyridine-3-carboxamide] was tested, and the pIC50 was ≥ 7.30.
With `Cc1ccc(-c2noc([C@H]3C[C@@H]3F)n2)cc1NC(=O)c1cnc2cc(CCOCC(C)(C)O)ccn12` [Compound I-467, N-(5-(5-((1R,2S)-2-fluorocyclopropyl)-1,2,4-oxadiazol-3-yl)-2-methylphenyl)-7-(2-(2-hydroxy-2-methylpropoxy)ethyl)imidazo[1,2-a]pyridine-3-carboxamide] the pIC50 was ≥ 7.30.
With `Cc1ccc(-c2noc([C@H]3C[C@@H]3F)n2)cc1NC(=O)c1cnc2c(F)c(COCCO)ccn12` [Compound I-472] the pIC50 was 6.30 to 7.30.
Compound `Cc1ccc(-c2noc([C@H]3C[C@@H]3F)n2)cc1NC(=O)c1cnc2c(F)c(COCC(C)(C)O)ccn12` [Compound I-473] has a pIC50 of 6.30 to 7.30.
For `Cc1ccc(-c2noc([C@H]3C[C@@H]3F)n2)cc1NC(=O)c1cnc2cc(CCC(C)(C)CO)ccn12` [Compound I-474, N-[5-[5-[(1R,2S)-2-fluorocyclopropyl]-1,2,4-oxadiazol-3-yl]-2-methyl-phenyl]-7-(4-hydroxy-3,3-dimethyl-butyl)imidazo[1,2-a]pyridine-3-carboxamide], the pIC50 was ≥ 7.30.
For `Cc1ccc(-c2noc([C@H]3C[C@@H]3F)n2)cc1NC(=O)c1cnc2cc(CCOCCO)ccn12` [Compound I-475, N-[5-[5-[(1R,2S)-2-fluorocyclopropyl]-1,2,4-oxadiazol-3-yl]-2-methyl-phenyl]-7-[2-(2-hydroxyethoxy)ethyl]imidazo[1,2-a]pyridine-3-carboxamide], the pIC50 was ≥ 7.30.
In the case of `Cc1ccc(-c2noc(CC(O)C(F)F)n2)cc1NC(=O)c1cnc2ccccn12` (centres unmarked) [Compound I-476], the pIC50 was ≥ 7.30.
With `Cc1ccc(-c2noc([C@H]3C[C@@H]3F)n2)cc1NC(=O)c1cnc2cc(COCC(=O)O)ccn12` [Compound I-477, 2-((3-((5-(5-((1R,2S)-2-fluorocyclopropyl)-1,2,4-oxadiazol-3-yl)-2-methylphenyl)carbamoyl)imidazo[1,2-a]pyridin-7-yl)methoxy)acetic acid] the pIC50 was ≥ 7.30.
For `Cc1ccc(-c2noc([C@H]3C[C@@H]3F)n2)cc1NC(=O)c1cnc2cc(C3CC(O)C3)ccn12` (stereo partly drawn) [Compound I-478, N-[5-[5-[(1R,2S)-2-fluorocyclopropyl]-1,2,4-oxadiazol-3-yl]-2-methyl-phenyl]-7-(3-hydroxycyclobutyl)imidazo[1,2-a]pyridine-3-carboxamide], the pIC50 was ≥ 7.30.
With `Cc1ccc(-c2noc([C@H]3C[C@@H]3F)n2)cc1NC(=O)c1cnc2cc([C@H]3C[C@@H]3CO)ccn12` [Compound I-480, N-[5-[5-[(1R,2S)-2-fluorocyclopropyl]-1,2,4-oxadiazol-3-yl]-2-methyl-phenyl]-7-[(1S,2S)-2 (hydroxymethyl)cyclopropyl]imidazo[1,2-a]pyridine-3-carboxamide] the pIC50 was ≥ 7.30.
For `Cc1ccc(-c2noc([C@H]3C[C@@H]3F)n2)cc1NC(=O)c1cnc2cc([C@@H]3C[C@H]3CO)ccn12` [Compound I-481, N-[5-[5-[(1R,2S)-2-fluorocyclopropyl]-1,2,4-oxadiazol-3-yl]-2-methyl-phenyl]-7-[(1R,2R)-2 (hydroxymethyl)cyclopropyl]imidazo[1,2-a]pyridine-3-carboxamide], the pIC50 was ≥ 7.30.
In the case of `Cc1ccc(-c2noc([C@H]3C[C@@H]3F)n2)cc1NC(=O)c1cnn2cc(F)ccc12` [Compound I-486, 6-fluoro-N-(5-(5-((1R,2S)-2-fluorocyclopropyl)-1,2,4-oxadiazol-3-yl)-2-methylphenyl)pyrazolo[1,5-a]pyridine-3-carboxamide], the pIC50 was ≥ 7.30.
Work on `Cc1ccc(-c2noc([C@H]3C[C@@H]3F)n2)cc1NC(=O)c1cnn2cccc(F)c12` [Compound I-487] yielded a pIC50 of 6.30 to 7.30.
`Cc1ccc(-c2noc([C@H]3C[C@@H]3F)n2)cc1NC(=O)c1cnc2cc(COCC3(O)COC3)ccn12` [Compound I-490, N-(5-(5-((1R,2S)-2-fluorocyclopropyl)-1,2,4-oxadiazol-3-yl)-2-methylphenyl)-7-(((3-hydroxyoxetan-3-yl)methoxy)methyl)imidazo[1,2-a]pyridine-3-carboxamide] was tested, and the pIC50 was ≥ 7.30.
`Cc1ccc(-c2noc([C@H]3C[C@@H]3F)n2)cc1NC(=O)c1cnc2cc(C(=O)O)ccn12` [Compound I-491] was tested, and the pIC50 was 6.30 to 7.30.
`Cc1ccc(-c2noc([C@H]3C[C@@H]3F)n2)cc1NC(=O)c1cnn2ccc(OC(C)C)cc12` [Compound I-493, N-(5-(5-((1R,2S)-2-fluorocyclopropyl)-1,2,4-oxadiazol-3-yl)-2-methylphenyl)-5-isopropoxypyrazolo[1,5-a]pyridine-3-carboxamide] was tested, and the pIC50 was ≥ 7.30.
